Laboratory results from US20020077317A1, “Method of potentating the action of 2-methoxyoestradiol, statins and C-peptide of proinsulin” (priority 2000, published 2002).

Columns and labels:
delta-6-desaturase = delta-6-desaturase (Homo sapiens, UniProt O95864); assay: delta-6-desaturase activity; format: biochemical
Source text: (§1) Essential fatty acids are precursors of eicosanoids and are important structural components of cell membranes. They also provide the substrates for the generation of lipid peroxidation products which have an inhibitory action on cell proliferation. Tumor cells are known to have low delta-6-desaturase activity, an enzyme necessary for the desaturation of dietary linoleic acid (LA, 18:2, n-6) and alpha-linolenic acid (ALA, 18:3, n-3) to their respective products. […] This selective tumoricidal action of fatty acids seems to be mediated by free radicals and lipid peroxides.

delta-5-desaturase = delta-5-desaturase (Homo sapiens, UniProt O60427); assay: delta-5-desaturase activity; format: biochemical
delta-5-desaturase, sequence (O60427 whole entry, species assumed): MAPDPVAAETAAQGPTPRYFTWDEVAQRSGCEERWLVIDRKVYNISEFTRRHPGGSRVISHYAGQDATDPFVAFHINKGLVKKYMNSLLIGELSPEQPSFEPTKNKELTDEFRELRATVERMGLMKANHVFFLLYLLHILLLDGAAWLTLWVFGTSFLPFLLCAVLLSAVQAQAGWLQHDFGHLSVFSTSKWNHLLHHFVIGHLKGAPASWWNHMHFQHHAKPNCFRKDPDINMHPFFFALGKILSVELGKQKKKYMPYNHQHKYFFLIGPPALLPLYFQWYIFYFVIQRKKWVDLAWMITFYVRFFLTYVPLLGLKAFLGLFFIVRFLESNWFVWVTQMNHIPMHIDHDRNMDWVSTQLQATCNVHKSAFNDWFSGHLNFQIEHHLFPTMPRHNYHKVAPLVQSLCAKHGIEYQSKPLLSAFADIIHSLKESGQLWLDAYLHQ
Source text: as §1

endothelial cells = conditions: read-out: half-maximal inhibitory concentration (IC50); cited from earlier work
[1] = system: normal human skin fibroblasts; conditions: at 100 micro M concentration; cited from earlier work
[2] = system: breast cancer cells, MCF-7; conditions: cited from earlier work
[3] = system: Chinese Hamster V79 cells; conditions: in culture; cited from earlier work
solid tumors = conditions: cited from earlier work
[4] = system: SOD (superoxide dismutase); conditions: cited from earlier work
p53 protein = conditions: cited from earlier work
[5] = system: tumor cells and normal cells; assay: PUFAs on tumor cells and normal cells in vitro; format: cell-based; conditions: for killing of tumor cells versus normal cells: in vitro
Source text: (§2) Tumor cells are not only deficient in PUFAs but also have low rate(s) of lipid peroxidation and low amounts of superoxide dismutase (SOD), and contain relatively large amounts of antioxidants such as vitamin E. It is also believed that low rates of lipid peroxidation and consequent low amounts of lipid peroxides in the cells can contribute to an increase in the mitotic process which ultimately leads to an increase in cell proliferation. Thus, a deficiency of PUFAs, high amounts of antioxidants and the presence of low amounts of lipid peroxides in the tumor cells can contribute to the growth of tumor cells.
as §1

[6] = system: normal and tumor cells grown together; assay: mixed culture of normal and tumor cells; format: cell-based
Source text: as §2

skin papilloma = skin papilloma in mice; format: in vivo; conditions: pure fatty acid or fatty acid rich oils
hepatoma = hepatoma in rats; format: in vivo; conditions: pure fatty acid or fatty acid rich oils
ascitic tumor cells = ascitic tumor cells in the peritoneum; format: in vivo; conditions: experimental animals; pure fatty acid or fatty acid rich oils
tumor cells = assay: PUFA potentiation of anti-cancer drugs in tumor cells; format: cell-based; conditions: for cytotoxic action of doxorubicin, vincristine and cis-platinum: fatty acid added to anti-cancer drug
[7] = system: TNF resistant L-929 tumor cells; assay: TNF resistant L-929 tumor cells in vitro; format: cell-based; conditions: for killing of TNF resistant L-929 tumor cells: in vitro; for sensitisation of TNF-resistant L-929 cells to TNF: prior treatment with fatty acid
KB-Ch^R-8-5 = assay: vincristine resistant KB-ChR-8-5 tumor cells; format: cell-based
bone marrow cells = assay: side effects of anti-cancer agents on mouse bone marrow cells; format: in vivo; conditions: mice
Source text: […], it is desirable that PUFAs should be delivered to the patients in such a manner that they are easily available to the tumor cells and are delivered selectively to the tumor cells.

[8] = system: primary and metastatic tumors; conditions: experimental animals; cited from earlier work
endothelial cell = conditions: cited from earlier work
[9] = system: proliferating endothelial cells; conditions: cited from earlier work
[10] = system: subcutaneous hemangioendothelioma; conditions: mice with hemangioendothelioma and disseminated intravascular coagulopathy; cited from earlier work
[11] = system: bovine capillary endothelial cells; conditions: in vitro; cited from earlier work
[12] = system: free radical generation and lipid peroxidation; conditions: cited from earlier work
[13] = proliferating endothelial cells

delta-6-desaturase, sequence (O95864 whole entry, species assumed): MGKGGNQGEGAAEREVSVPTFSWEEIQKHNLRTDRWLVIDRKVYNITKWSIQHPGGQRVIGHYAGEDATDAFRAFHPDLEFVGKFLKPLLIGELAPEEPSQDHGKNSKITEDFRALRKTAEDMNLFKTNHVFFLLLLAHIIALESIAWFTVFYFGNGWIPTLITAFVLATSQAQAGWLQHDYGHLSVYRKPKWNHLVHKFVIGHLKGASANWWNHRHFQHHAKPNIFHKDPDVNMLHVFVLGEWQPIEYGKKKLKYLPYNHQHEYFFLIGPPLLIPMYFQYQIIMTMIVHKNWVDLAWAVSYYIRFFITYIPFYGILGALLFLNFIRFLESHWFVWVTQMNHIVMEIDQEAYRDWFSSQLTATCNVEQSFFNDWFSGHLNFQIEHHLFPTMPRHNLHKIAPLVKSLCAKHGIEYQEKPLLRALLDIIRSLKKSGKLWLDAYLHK

In the case of `CC(=O)Nc1ccc2c(c1)Cc1ccccc1-2` [2-AAF, 2-acetylaminofluorine], the “activity of delta-6-desaturase” value (delta-6-desaturase) is reported as “can suppress the activity” and the “activity of delta-5-desaturase” value (delta-5-desaturase) is reported as “can suppress the activity”.

For `COc1cc2c(cc1O)CC[C@@H]1[C@@H]2CC[C@]2(C)[C@@H](O)CC[C@@H]12` [2-ME, 2-methoxyoestradiol], the IC50 (endothelial cells) is given as 150 nM, the “effect on normal human skin fibroblasts” value [1] is given as “no effect” and the “action on MCF-7 cells” value [2] is given as “cytotoxic action”. For the same compound, the “growth of Chinese Hamster V79 cells” value [3] was “suppres the growth”, the general toxicity (solid tumors; in vivo) was “not associated with general toxicity” and the “capillary formation in and growth of solid tumors” value (solid tumors; oral administration, mice) was “inhibit capillary formation in solid tumors and reduce their growth”. The “binding to SOD” value [4] was “able to bind to SOD” and the “accumulation of p53 protein” value (p53 protein) was “induce the accumulation of p53 protein”.

With `CCCCC/C=C\C/C=C\C/C=C\C/C=C\CCCC(=O)O` [AA, arachidonic acid] the tumor cell proliferation [5] was “decrease tumor cell proliferation”, the “killing of tumor cells versus normal cells” value [5] was “only tumor cells are killed” and the “selective tumoricidal action in mixed culture” value [6] was “effective to some extent”. For the same compound, the “growth of skin papilloma” value (skin papilloma) was “inhibit the growth”, the “formation and growth of hepatoma” value (hepatoma) was “inhibit the growth” and the “growth of ascitic tumor cells in the peritoneum” value (“growth of ascitic tumor cells” below) (ascitic tumor cells) was “inhibit the growth”. The “cellular uptake of anti-cancer drugs by tumor cells” value (“cellular uptake” for short) (tumor cells) was “enhance the cellular uptake”, the “cytotoxic action of doxorubicin, vincristine and cis-platinum” value (“cytotoxic action of doxorubicin” below) (tumor cells) was “can be augmented” and the “killing of TNF resistant L-929 tumor cells” value [7] was “able to kill”. The “sensitisation of TNF-resistant L-929 cells to TNF” value [7] was “rendered TNF sensitive” and the “sensitisation of vincristine resistant cells to vincristine” value (KB-Ch^R-8-5) was “made sensitive to the cytotoxic action of vincristine”.

For `CC/C=C\C/C=C\C/C=C\CCCCCCCC(=O)O` [ALA, alpha-linolenic acid], the “killing of tumor cells versus normal cells” value [5] was “only tumor cells are killed”.

For `CCN(CC)N=O` [DEN, diethylnitrosamine], the “activity of delta-6-desaturase” value (delta-6-desaturase) was “can suppress the activity” and the “activity of delta-5-desaturase” value (delta-5-desaturase) was “can suppress the activity”.

With `CCCCC/C=C\C/C=C\C/C=C\CCCCCCC(=O)O` [DGLA, dihomo-GLA] the tumor cell proliferation [5] was “decrease tumor cell proliferation”, the “killing of tumor cells versus normal cells” value [5] was “only tumor cells are killed” and the “growth of skin papilloma” value (skin papilloma) was “inhibit the growth”. The “formation and growth of hepatoma” value (hepatoma) was “inhibit the growth”, the “growth of ascitic tumor cells” value (ascitic tumor cells) was “inhibit the growth” and the “cellular uptake” value (tumor cells) was “enhance the cellular uptake”. For the same compound, the “cytotoxic action of doxorubicin” value (tumor cells) was “can be augmented”, the “killing of TNF resistant L-929 tumor cells” value [7] was “able to kill” and the “sensitisation of TNF-resistant L-929 cells to TNF” value [7] was “rendered TNF sensitive”. For the same compound, the “sensitisation of vincristine resistant cells to vincristine” value (KB-Ch^R-8-5) was “made sensitive to the cytotoxic action of vincristine” and the “side effects of gamma-radiation and cis-platinum to bone marrow cells” value (“side effects” for short) (bone marrow cells) was “prevent or ameliorate the side effects”.

With `CC/C=C\C/C=C\C/C=C\C/C=C\C/C=C\C/C=C\CCC(=O)O` [DHA, docosahexaenoic acid] the “cytotoxic action of doxorubicin” value (tumor cells) was “can be augmented”.

For `CC/C=C\C/C=C\C/C=C\C/C=C\C/C=C\CCCC(=O)O` [EPA, eicosapentaenoic acid], the “cytotoxic action of doxorubicin” value (tumor cells) was “can be augmented” and the “side effects” value (bone marrow cells) was “prevent or ameliorate the side effects”.

For `CCCCC/C=C\C/C=C\C/C=C\CCCCC(=O)O` [GLA, gamma-linolenic acid], the tumor cell proliferation [5] was “decrease tumor cell proliferation”, the “killing of tumor cells versus normal cells” value [5] was “only tumor cells are killed” and the “formation and growth of hepatoma” value (hepatoma) was “inhibit the growth”. For the same compound, the “growth of ascitic tumor cells” value (ascitic tumor cells) was “inhibit the growth”, the “cellular uptake” value (tumor cells) was “enhance the cellular uptake” and the “cytotoxic action of doxorubicin” value (tumor cells) was “can be augmented”. For the same compound, the “killing of TNF resistant L-929 tumor cells” value [7] was “able to kill” and the “side effects” value (bone marrow cells) was “prevent or ameliorate the side effects”.

With `CCCCC/C=C\C/C=C\CCCCCCCC(=O)O` [LA, linoleic acid] the “killing of tumor cells versus normal cells” value [5] was “only tumor cells are killed”.

With `CC\C=C/C=C/C=C/C=C\CCCCCCCC(=O)O` [cis-parinaric acid] the “killing of tumor cells versus normal cells” value [5] was “only tumor cells are killed”.

In the case of Endostatin®, the “primary and metastatic tumors” value [8] is given as “dramatic reduction of primary and metastatic tumors” and the “endothelial cell proliferation and angiogenesis” value (endothelial cell) is given as “specifically inhibit endothelial cell proliferation and angiogenesis”.

For angiostatin®, the cell cycle progression [9] is listed as “did not alter cell cycle progression significantly”, the adhesion activity [9, 13] is listed as “enhanced the adhesion activity” and the “change in expression of E-selectin” value [9, 13] is listed as 4 to 5 fold. For the same compound, the “size of the tumor” value [10] was “significant reduction in the size of the tumor”, the survival [10] was “increased survival” and the “proliferation/growth of bovine capillary endothelial cells” value [11] was “inhibit the growth of bovine capillary endothelial cells”.

For superoxide dismutase, the “free radical generation and lipid peroxidation generated by GLA, EPA and DHA” value [12] is given as “completely inhibit free radical generation and lipid peroxidation”.

For vitamin E, the “free radical generation and lipid peroxidation generated by GLA, EPA and DHA” value [12] is listed as “completely inhibit free radical generation and lipid peroxidation”.
